According to patent publication US20200276136A1, “METHOD OF TREATING SELECTED PATIENT POPULATION EXPERIENCING DRAVET SYNDROME” (ZOGENIX INTERNATIONAL LIMITED, priority 2017, published 2020):

Columns and labels:
[1] = system: patients with Dravet syndrome; details: cited from earlier work
[2] = system: patients with Dravet syndrome; assay: Study 1 (ZX008-1501/1502), Phase 3 double-blind placebo-controlled: efficacy on seizures; type: in vivo, human; details: 0.8 mg/kg/day; end of the T+M Period
Experimental: The first 119 subjects to be randomized in both identical studies combined were analyzed and reported as Study 1 (FIG. 1), covered by a Statistical Analysis Plan (SAP).
Primary and key secondary endpoints in the Study 1 SAP were pre-determined. All patients were treated twice per day over a period of 14 weeks using an oral syringe to administer the formulation. The treatment period included a two-week titration period and a 12-week maintenance period.
Patients were titrated to their target dose over two weeks, and then remained at that fixed dose for 12 weeks. The mean baseline convulsive seizure frequency across the study groups was approximately 40 seizures per month. 110 (92%) patients completed the study (85% 0.8 mg/kg/day; 100% 0.2 mg/kg/day; 93% placebo).
The proportion of patients who achieved ≥75% seizure reductions, a secondary (non-key) efficacy measure, is also presented.
The mean number of convulsive seizure free days, defined as a day for which diary data are available and no convulsive seizures have been reported, was determined for each treatment group during the Baseline and T+M Periods. […]

Which results are given for `CCNC(C)Cc1cccc(C(F)(F)F)c1` (racemic) [Fenfluramine, (RS)—N-ethyl-1-[3-(trifluoromethyl)phenyl]propan-2-amine]?
>50% Reduction in Seizures (responders) ([1]; Fenfluramine and Valproate, average 0.34 mg/kg/day for between 1 and 22 years): 75%; heart valve defects monitored by echocardiography ([1]; long-term treatment): No clinically relevant defects were identified; types of seizures reduced ([1]; long-term treatment): effectively reduced the incidence of all types of seizures; reduction from Baseline in non-convulsive seizure frequency (all types) [2]: 59.1%
